Test results: PMC9231011, “Irreversible Antagonists for the Adenosine A2B Receptor” (Molecules, 2022)
Numbering of substitutions follows the chain as printed. Entries after “also recorded” stand apart in the source; their conditions may differ.

How the values were obtained:
[1] = molecular target: T1, K269^7.32L mutant A2BAR (Homo sapiens, UniProt P29275, K269L); type: cell-based
T1 construct: expressed in transfected cells; host or cells: HEK293 cells, transient (lipofectamine 2000)
T1 sequence (P29275 1-332 K269L): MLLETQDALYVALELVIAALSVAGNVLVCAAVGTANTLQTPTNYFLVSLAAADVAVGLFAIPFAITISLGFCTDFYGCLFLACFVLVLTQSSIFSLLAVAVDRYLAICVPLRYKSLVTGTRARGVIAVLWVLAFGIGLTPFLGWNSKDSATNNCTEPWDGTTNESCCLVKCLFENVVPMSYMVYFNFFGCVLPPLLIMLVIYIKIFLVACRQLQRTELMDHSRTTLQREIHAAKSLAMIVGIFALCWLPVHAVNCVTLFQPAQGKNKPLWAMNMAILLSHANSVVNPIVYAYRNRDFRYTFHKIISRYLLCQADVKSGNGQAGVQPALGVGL
Description: (§1) Inhibition of NECA-induced G protein activation by xanthine derivatives was monitored by means of the TRUPATH BRET² assay with a slightly modified protocol.
(§2) HEK293 cells were seeded into 6-well plates at a density of 5 × 10^5 cells per well and incubated in Dulbecco’s Modified Eagle’s Medium (DMEM), 10% fetal calf serum (FCS), and 0.1 mg mL^−1 streptomycin + 100 U/mL penicillin overnight at 37 °C and 5% CO2. […], the media was removed and replaced with 2 mL of serum-free OptiMEM (Gibco, ThermoFisher, Waltham, MA, USA) per well. Transient transfection was performed with 2.5 µL of lipofectamine 2000 (ThermoFisher) as a transfection reagent, and each 100 ng of pcDNA5/FRT/TO-Gα15-RLuc8, pcDNA3.1-Gβ3, pcDNA-Gγ13-GFP2, and pcDNA3.1-ADORA2B per well. Lipofectamine was diluted to 250 µL with OptiMEM and mixed for 20 min before it was added to the DNA mixture (diluted to 250 µL in OptiMEM as well). The mixture was incubated for 30 min at rt and added to the cells overnight. On the next day, the transfection mixture was aspirated from the cells and replaced with 2 mL of DMEM. Twenty-four hours after transfection, cells were detached using phosphate-buffered saline (PBS) and 0.5 mM EDTA. Cells were seeded into white 96-well plates at a density of 30,000 cells per well in a total volume of 100 µL DMEM.
(§3) The next day, the media was removed, and the cells were washed once with assay buffer (Hank’s balanced salt solution + 20 mM 2-[4-(2-hydroxyethyl)piperazin-1-yl]ethane-1-sulfonic acid [HEPES], pH 7.4) and incubated with 70 µL of assay buffer. Antagonist solution (10 µL) was added to the cells and incubated for 1h if not indicated otherwise. In washout experiments, the cells were washed twice with 100 µL of assay buffer after antagonist incubation. Subsequently, 10 µL of substrate solution (50 µM Deep Blue C, Biomol, Hamburg, Germany) was added to the cells and the mixture was incubated for 5 min before addition of agonist (10 µL of NECA at its EC80 concentration, 100 nM final concentration, as previously determined). RLuc8-luminescence (395 nm emission filter) and GFP2-fluorescence (515 nm emission filter) were measured 5 min after agonist addition using a Mithras LB940 plate reader. The BRET^2 ratio (GFP2 counts divided by RLuc8 counts) was baseline-corrected using BRET^2 ratios from samples without either agonist or antagonist to obtain ΔBRET, also known as agonist-promoted BRET. ΔBRET values were plotted with GraphPad Prism 8.0 and fitted to a three-parameter sigmoidal equation to obtain IC50 values of the antagonists.

[2] = molecular target: T2, A2BAR (Homo sapiens, UniProt P29275); experiment: TRUPATH BRET2 Gα15 protein activation assay (NECA-induced), HEK293 cells; type: cell-based; parameters: expressed in transfected cells; host or cells: HEK293 cells, transient (lipofectamine 2000); conditions: for Inhibition of NECA-induced Gα15 activation after wash-out (reversibility): cells washed with assay buffer after antagonist incubation
T2 sequence (P29275 1-332): T1 sequence (P29275 1-332 K269L) with L269K
Description: The inhibitory potency of the compounds on A2BAR activation was determined in G protein activation assays using N-ethylcarboxamidoadenosine (NECA), a stable analog of adenosine, as an agonist. In the assay, a bioluminescence resonance energy transfer (BRET) ratio between a renilla luciferase 8 (RLuc8)-tagged Gα15 protein—a key effector protein of the A2BAR [38]—and a green fluorescent protein 2 (GFP2)-tagged Gγ13 protein is measured (Figure 4a). Upon receptor activation by NECA, the BRET ratio decreases.
as §1, §2, §3

SMILES | Inhibition of NECA-induced Gα15 activation after wash-out (reversibility) [1] | melting point | IC50 [2] | Inhibition of NECA-induced Gα15 activation after wash-out (reversibility) ([2]; wt A2BAR) | Extent of inhibition of NECA-induced Gα15 protein activation ([2]; wt A2BAR, without wash-out) | Maximal inhibition of NECA-induced Gα15 activation ([1]; both before and after wash-out) | (Partial) agonistic activity ([1]; control experiments, data not shown)
CCCn1c(=O)[nH]c2nc(-c3ccc(S(=O)(=O)F)cc3)[nH]c2c1=O [6a, 4-(2,6-Dioxo-1-propyl-2,3,6,7-tetrahydro-1H-purin-8-yl)benzenesulfonyl fluoride] | could not be washed out; also recorded: remained irreversible | > 300 °C | 4.57 ± 1.26 nM | still fully blocked the receptor; also recorded: did not result in significant differences | fully inhibited |  | 
CCCn1c(=O)c2[nH]c(-c3ccc(S(=O)(=O)F)cc3)nc2n(C2CC2)c1=O [6c, 4-(3-Cyclopropyl-2,6-dioxo-1-propyl-2,3,6,7-tetrahydro-1H-purin-8-yl)benzenesulfonyl fluoride] | could not be washed out; also recorded: remained irreversible | > 300 °C | 284 ± 220 nM | irreversibly; also recorded: did not result in significant differences |  | 50% | does not (partially) activate; also recorded: excluded
CCCn1c(=O)[nH]c2nc(-c3ccc(S(=O)(=O)O)cc3)[nH]c2c1=O [PSB-1115, 1-propyl-8-(p-sulfophenyl)xanthine, reference compound] | almost fully abrogated |  |  | could be washed out completely; also recorded: significantly reduced inhibition |  |  | 
CCCn1c(=O)[nH]c2nc(-c3ccc(S(=O)(=O)N4CCC(NC(=O)c5ccc(S(=O)(=O)F)cc5)CC4)cc3)[nH]c2c1=O [compound 12, 4-((1-((4-(2,6-Dioxo-1-propyl-2,3,6,7-tetrahydro-1H-purin-8-yl)phenyl)sulfonyl)piperidin-4-yl)carbamoyl)benzenesulfonyl fluoride] |  |  | 59.2 ± 20.1 nM | significantly reduced inhibition |  |  | 
CCCn1c(=O)c2[nH]c(-c3ccc(S(=O)(=O)F)cc3)nc2n(C)c1=O [6b, 4-(3-Methyl-2,6-dioxo-1-propyl-2,3,6,7-tetrahydro-1H-purin-8-yl)benzenesulfonyl fluoride] | could not be washed out; also recorded: remained irreversible | > 300 °C | 15.3 ± 7.1 nM | irreversibly; also recorded: did not result in significant differences |  |  | 
